According to US20230067811A1, “MODULATING LYMPHATIC VESSELS IN NEUROLOGICAL DISEASE” (University of Virginia Patent Foundation, priority 2020, published 2023):

Assays:
[1] = system: WT mice; assay: Meningeal lymphatic vessel ablation (Visudyne plus photoconversion): lymphatic morphology; format: in vivo, mouse; conditions: 1 week after Visudyne i.c.m. plus transcranial photoconversion
Description: Adult 2 months-old WT mice were injected (i.c.m.) with Visudyne (5 μL) followed by a transcranial photoconversion step (Vis./photo.) to ablate meningeal lymphatic vessels. Control mice were injected with Visudyne without photoconversion (Vis.). One week later, mice were injected with 5 μL of a suspension of fluorescent microspheres (1 μm in diameter) into the CSF and 15 minutes later the lymphatic vessel afferent to the deep cervical lymph node (dCLN) was imaged by in vivo stereomicroscopy. Representative images of skull cap show microspheres and lymphatic vessels stained for LYVE-1 around the confluence of sinuses (COS) and transverse sinus (TS) at the dorsal brain meninges or around the sigmoid (SS) and petrosquamosal (PSS) sinuses at the basal brain meninges (scale bars, 500 μm). […]
(§1) Immunohistochemistry, imaging and quantifications. […]

[2] = system: 5×FAD mice; assay: ABETA Mab1 i.p. in 5×FAD mice with intact or ablated meningeal lymphatics: Aβ plaques, LAMP1, IBA1, CD68, fibrinogen; format: in vivo, mouse
Description: Upon recovery, mice received intraperitoneal (i.p.) injections of ABETA Mab1 (a murine antibody against Aβ protofibrils) or the control murine IgG (mIgG) antibodies, each at a dose of 40 mg/kg. Antibodies were injected weekly for a total of four weeks. Additional steps of meningeal lymphatic vessel ablation or control interventions were followed by four weekly injections with antibodies. Mice were tested in the open field and Morris water maze.
In another set of experiment 5×FAD mice of 3-3.5 months-old were injected (i.p.) with anti-Abeta antibody (ABETA Mab1) or mIgG (each at 40 mg/kg) following the exact same treatment regimen (FIG. 10A).
Treatments with anti-Aβ monoclonal antibodies. ABETA Mab1 and respective control IgG2a (mIgG) antibodies were manufactured by Absolute Antibody Ltd., Oxford Centre for Innovation, United Kingdom. Anti-Aβ monoclonal antibodies and respective mIgG controls were administered via intraperitoneal (i.p.) injection, at a dose of 40 mg/kg. Antibody dosages are also specified in the main text, illustrated in schemes and in each figure legend. Alternatively, ABETA Mab1 and mIgG antibodies were injected directly into the CSF, following the methodology described in the next section.
Meningeal lymphatic vessel ablation. Selective ablation of the meningeal lymphatic vessels was achieved by injection of Visudyne (Vis.) and consecutive transcranial photoconversion (photo.) steps following previously described methodology and regimens (Da Mesquita, S. et al. Functional aspects of meningeal lymphatics in ageing and Alzheimer's disease. Nature 560, 185-191, (2018); Louveau, A. et al. CNS lymphatic drainage and neuroinflammation are regulated by meningeal lymphatic vasculature. Nat Neurosci 21, 1380-1391, (2018)). Visudyne was reconstituted following manufacturer instructions, aliquoted and kept at −20° C. until further used. […] Each spot was irradiated with a light dose of 50 J/cm^2 at an intensity of 600 mW/cm^2 for a total of 83 s. […]
as §1

[3] = 5×FAD mice with reduced meningeal lymphatic drainage

## verteporfin [Visudyne]
[1]
  lymphatic vasculature lining the transverse sinus (dorsal meninges): efficient ablation
  lymphatic vessels around the SS and PSS (basal meninges): no significant changes
[2]; 5×FAD mice with dysfunctional versus intact meningeal lymphatics
  brain coverage by LAMP1+ dystrophic neurites: significantly increased
[2]; [3]
  fibrinogen levels in the brain: increased fibrinogen levels
  myeloid cell activation (IBA1+ coverage, peri-Aβ plaque IBA1+ cells, CD68 on IBA1+ cells): aberrant activation of myeloid cells
